Several values for one entry are separate records, joined by “and”; a condition that tells them apart may be missing. Equal entries are not always repeated. Toxic doses and inconclusive results are not listed.
Test system: CD2F1 mice, L1210 leukemia ip, survival T/C
Test: NCI In Vivo Anticancer Drug Screen. Data for tumor model L1210 Leukemia (intraperitoneal) in CD2F1 (CDF1) mice
Conditions: higher = longer survival
Procedure, shortened: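 Tumor-bearing mice (transplanted tumor) were split into treated and vehicle control groups, and the measured endpoint of each treated group was divided by that of its vehicle controls.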

[1] = endpoint: mean survival time, dose: 100.0 mg/kg/injection, schedule: Q01DX009 (ip), vehicle: saline with Tween-80
[2] = endpoint: mean survival time, dose: 200.0 mg/kg/injection, schedule: Q01DX009 (ip), vehicle: saline with Tween-80
[3] = endpoint: mean survival time, dose: 400.0 mg/kg/injection, schedule: Q01DX009 (ip), vehicle: saline with Tween-80
[4] = endpoint: mean survival time, dose: 100.0 mg/kg/injection, schedule: Q04DX003 (ip), vehicle: saline with Tween-80
[5] = endpoint: mean survival time, dose: 200.0 mg/kg/injection, schedule: Q04DX003 (ip), vehicle: saline with Tween-80
[6] = endpoint: mean survival time, dose: 400.0 mg/kg/injection, schedule: Q04DX003 (ip), vehicle: saline with Tween-80

SMILES: CC1=C/C(=N\N=C2/C=C(C)CC(C)(C)C2)CC(C)(C)C1
- T/C (endpoint: mean survival time, dose: 100.0 mg/kg/injection, schedule: Q04DX003 (ip), vehicle: Klucel (hydroxypropylcellulose) (HPC)): 93 % of control
- T/C (endpoint: mean survival time, dose: 200.0 mg/kg/injection, schedule: Q04DX003 (ip), vehicle: Klucel (hydroxypropylcellulose) (HPC)): 91 % of control
- T/C (endpoint: mean survival time, dose: 400.0 mg/kg/injection, schedule: Q04DX003 (ip), vehicle: Klucel (hydroxypropylcellulose) (HPC)): 89 % of control

SMILES: COCCCN1CCN(c2ccccc2OC)CC1
- T/C (endpoint: mean survival time, dose: 50.0 mg/kg/injection, schedule: Q01DX009 (ip), vehicle: saline): 93 % of control
- T/C (endpoint: mean survival time, dose: 100.0 mg/kg/injection, schedule: Q01DX009 (ip), vehicle: saline): 88 % of control
- T/C (endpoint: mean survival time, dose: 100.0 mg/kg/injection, schedule: Q04DX003 (ip), vehicle: saline): 98 % of control
- T/C (endpoint: mean survival time, dose: 200.0 mg/kg/injection, schedule: Q04DX003 (ip), vehicle: saline): 104 % of control

SMILES: CCOC(=O)c1ccc(NCN2C(=O)CCC2=O)cc1
- T/C [1]: 95 % of control
- T/C [2]: 101 % of control
- T/C [3]: 102 % of control

SMILES: C[C@@H]1C[C@H]2[C@@H]3CCC4=CC(=O)C=C[C@]4(C)[C@@]3(F)[C@@H](O)C[C@]2(C)[C@@]1(O)C(=O)CO
- T/C (endpoint: mean survival time, dose: 3.12 mg/kg/injection, schedule: Q01DX009 (ip), vehicle: suspension in saline): 116 % of control
- T/C (endpoint: mean survival time, dose: 6.25 mg/kg/injection, schedule: Q01DX009 (ip), vehicle: suspension in saline): 108 % of control
- T/C (endpoint: mean survival time, dose: 12.5 mg/kg/injection, schedule: Q01DX009 (ip), vehicle: suspension in saline): 108 % of control
- T/C (endpoint: mean survival time, dose: 25.0 mg/kg/injection, schedule: Q01DX009 (ip), vehicle: suspension in saline): 122 % of control
- T/C (endpoint: mean survival time, dose: 50.0 mg/kg/injection, schedule: Q01DX009 (ip), vehicle: suspension in saline): 110 % of control

SMILES: COC/C(=N/Nc1ccc([N+](=O)[O-])cc1[N+](=O)[O-])c1ccccc1
- T/C [4]: 102 % of control
- T/C [5]: 108 % of control
- T/C [6]: 100 % of control

SMILES: O=C(COc1ccc(Cl)cc1Cl)OCCI
- T/C (endpoint: mean survival time, dose: 100.0 mg/kg/injection, schedule: Q04DX002 (ip), vehicle: saline with Tween-80): 97 % of control
- T/C (endpoint: mean survival time, dose: 200.0 mg/kg/injection, schedule: Q04DX002 (ip), vehicle: saline with Tween-80): 102 % of control

SMILES: O=C(c1ccccc1Cl)n1c2c(c3ccccc31)CCCC2
- T/C [1]: 110 % of control
- T/C [4]: 101 % of control
- T/C [2]: 103 % of control
- T/C [5]: 95 % of control
- T/C [3]: 96 % of control
- T/C [6]: 97 % of control

SMILES: O=C(NC1=C(N2CC2)C(=O)C(NC(=O)OCCO)=C(N2CC2)C1=O)OCCO
- T/C (endpoint: mean survival time, dose: 0.18 mg/kg/injection, schedule: Q01DX009 (ip), vehicle: saline): 109 % of control and 112 % of control
- T/C (endpoint: mean survival time, dose: 0.39 mg/kg/injection, schedule: Q01DX009 (ip), vehicle: saline): 113 % of control and 104 % of control
- T/C (endpoint: mean survival time, dose: 0.75 mg/kg/injection, schedule: Q01DX009 (ip), vehicle: saline): 117 % of control and 120 % of control

SMILES: CN(C)c1ccc(/C=N/NC(=O)CNC(=O)Nc2cccc(C(F)(F)F)c2)cc1
- T/C (endpoint: mean survival time, dose: 50.0 mg/kg/injection, schedule: Q01DX009 (ip), vehicle: saline with Tween-80): 96 % of control
- T/C [1]: 92 % of control
- T/C [2]: 88 % of control

SMILES: Cc1ccc(S(=O)(=O)OCCc2cccc3ccccc23)cc1
- T/C (endpoint: mean survival time, dose: 100.0 mg/kg/injection, schedule: Q01DX001 (ip), vehicle: saline): 101 % of control
- T/C (endpoint: mean survival time, dose: 200.0 mg/kg/injection, schedule: Q01DX001 (ip), vehicle: saline): 101 % of control
- T/C (endpoint: mean survival time, dose: 400.0 mg/kg/injection, schedule: Q01DX001 (ip), vehicle: saline): 98 % of control

SMILES: Cn1c(=O)c2c(nc(NN)n2C)n(C)c1=O
- T/C (endpoint: mean survival time, dose: 12.5 mg/kg/injection, schedule: Q01DX005 (ip), vehicle: distilled water + Tween-80): 100 % of control
- T/C (endpoint: mean survival time, dose: 25.0 mg/kg/injection, schedule: Q01DX005 (ip), vehicle: distilled water + Tween-80): 100 % of control
- T/C (endpoint: mean survival time, dose: 50.0 mg/kg/injection, schedule: Q01DX005 (ip), vehicle: distilled water + Tween-80): 103 % of control
- T/C (endpoint: mean survival time, dose: 100.0 mg/kg/injection, schedule: Q01DX005 (ip), vehicle: distilled water + Tween-80): 89 % of control
- T/C (endpoint: mean survival time, dose: 200.0 mg/kg/injection, schedule: Q01DX005 (ip), vehicle: distilled water + Tween-80): 101 % of control

SMILES: CC(C)N1CC(COc2cccc3ccccc23)OP1(=O)N(CCCl)CCCl (configuration not stated)
- T/C (endpoint: mean survival time, dose: 31.25 mg/kg/injection, schedule: Q01DX001 (ip), vehicle: distilled water + Tween-80): 101 % of control
- T/C (endpoint: mean survival time, dose: 62.5 mg/kg/injection, schedule: Q01DX001 (ip), vehicle: distilled water + Tween-80): 101 % of control
- T/C (endpoint: mean survival time, dose: 125.0 mg/kg/injection, schedule: Q01DX001 (ip), vehicle: distilled water + Tween-80): 95 % of control and 98 % of control and 101 % of control
- T/C (endpoint: mean survival time, dose: 250.0 mg/kg/injection, schedule: Q01DX001 (ip), vehicle: distilled water + Tween-80): 93 % of control and 103 % of control and 111 % of control
- T/C (endpoint: mean survival time, dose: 500.0 mg/kg/injection, schedule: Q01DX001 (ip), vehicle: distilled water + Tween-80): 90 % of control and 110 % of control
- T/C (endpoint: mean survival time, dose: 1000.0 mg/kg/injection, schedule: Q01DX001 (ip), vehicle: distilled water + Tween-80): 113 % of control and 93 % of control

SMILES: C[C@]12CCC(=O)C=C1CC[C@@H]1[C@@H]2[C@@H](O)C[C@@]2(C)[C@H]1CC[C@]2(O)C(=O)COP(=O)(O)OCC1OC(n2ccc(N)nc2=O)C(O)C1O (some centres not stated)
- T/C (endpoint: mean survival time, dose: 5.0 mg/kg/injection, schedule: Q01DX005 (ip), vehicle: other): 104 % of control
- T/C (endpoint: mean survival time, dose: 10.0 mg/kg/injection, schedule: Q01DX005 (ip), vehicle: other): 110 % of control
- T/C (endpoint: mean survival time, dose: 15.0 mg/kg/injection, schedule: Q01DX005 (ip), vehicle: other): 115 % of control
- T/C (endpoint: mean survival time, dose: 120.0 mg/kg/injection, schedule: Q01DX005 (ip), vehicle: other): 150 % of control
- T/C (endpoint: mean survival time, dose: 240.0 mg/kg/injection, schedule: Q01DX005 (ip), vehicle: other): 162 % of control

SMILES: CCCCCCCCC(=O)OCC1OC(n2cnc3c(N)nc(Cl)nc32)CC1O (configuration not stated)
- T/C (endpoint: median survival time, dose: 40.0 mg/kg/injection, schedule: Q01DX009 (ip), vehicle: saline with Tween-80): 161 % of control
- T/C (endpoint: median survival time, dose: 50.0 mg/kg/injection, schedule: Q01DX009 (ip), vehicle: saline with Tween-80): 344 % of control
- T/C (endpoint: median survival time, dose: 60.0 mg/kg/injection, schedule: Q01DX009 (ip), vehicle: saline with Tween-80): 177 % of control
- T/C (endpoint: median survival time, dose: 80.0 mg/kg/injection, schedule: Q01DX009 (ip), vehicle: saline with Tween-80): 97 % of control
- T/C (endpoint: median survival time, dose: 100.0 mg/kg/injection, schedule: Q01DX009 (ip), vehicle: saline with Tween-80): 102 % of control

SMILES: CC(=O)OCC1OC(n2cnc3c(=S)nc(N)[nH]c32)CC1OC(C)=O (configuration not stated)
- T/C (endpoint: mean survival time, dose: 0.63 mg/kg/injection, schedule: Q01DX005 (ip), vehicle: saline with Tween-80): 101 % of control
- T/C (endpoint: mean survival time, dose: 1.25 mg/kg/injection, schedule: Q01DX005 (ip), vehicle: saline with Tween-80): 117 % of control
- T/C (endpoint: mean survival time, dose: 20.0 mg/kg/injection, schedule: Q01DX005 (ip), vehicle: saline with Tween-80): 156 % of control

SMILES: O=C1C=CC(=O)C1
- T/C (endpoint: mean survival time, dose: 5.0 mg/kg/injection, schedule: Q04DX002 (ip), vehicle: saline with Tween-80): 108 % of control

SMILES: C[CH2][Sn]1([CH2]C)[O]C2C(CO)OC(n3ccc4c(N)ncnc43)C2[O]1 (configuration not stated)
- T/C (endpoint: mean survival time, dose: 0.78 mg/kg/injection, schedule: Q01DX005 (ip), vehicle: other): 110 % of control
- T/C (endpoint: mean survival time, dose: 1.56 mg/kg/injection, schedule: Q01DX005 (ip), vehicle: other): 104 % of control
- T/C (endpoint: mean survival time, dose: 3.13 mg/kg/injection, schedule: Q01DX005 (ip), vehicle: other): 117 % of control

SMILES: CCCc1nc2[nH]c(N)nc(=S)c2[nH]1
- T/C (endpoint: mean survival time, dose: 12.5 mg/kg/injection, schedule: Q01DX005 (ip), vehicle: other): 100 % of control
- T/C (endpoint: mean survival time, dose: 25.0 mg/kg/injection, schedule: Q01DX005 (ip), vehicle: other): 108 % of control

SMILES: O=C(CN1CC1)NCCCCCCCNC(=O)CN1CC1
- T/C (endpoint: mean survival time, dose: 14.6 mg/kg/injection, schedule: Q01DX001 (ip), vehicle: carboxymethylcellulose (CMC)): 158 % of control
- T/C (endpoint: mean survival time, dose: 50.0 mg/kg/injection, schedule: Q01DX001 (ip), vehicle: carboxymethylcellulose (CMC)): 150 % of control

Reference: PubChem BioAssay AID256 (DTP/NCI, 2004)
